According to US12187713B2, “Immunomodulators, compositions and methods thereof” (Betta Pharmaceuticals Co., Ltd, priority 2019, dated 2025):

Legend:
PD-1/PD-L1 = PD-1/PD-L1 (Homo sapiens (Human), UniProt Q9NZQ7); experiment: PD-1/PD-L1 Binding Assay (Alphascreen); settings: numeric values
Procedure, shortened: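 PD-1/PD-L1 binding detected by anti-6×His acceptor and streptavidin donor beads after 120 min in the dark at 25 °C. Beforehand, the two proteins were incubated 15 min at 25 °C with inhibitor at 0.015–300 nM (1% DMSO). IC50 comes from a log concentration–response curve.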

[1] = Pharmacokinetic Assay, single oral dose 100 mg/kg (Table 11); type: in vivo; settings: mouse, C57 female mice, oral (intragastric), plasma
[2] = Pharmacokinetic Assay, single oral dose 5 mg/kg (Table 12); type: in vivo; settings: mouse, plasma concentration, C57 female mice, single oral dose 5 mg/kg
Procedure, shortened: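 Adult female C57 mice (n=3) got one intragastric dose of 5 mg/kg in 15% DMSO, 10% Kolliphor HS 15, 75% saline. Retro-orbital blood was taken at 30 min, 2 h and 4 h into K2-EDTA. Plasma levels were measured by LC-MS/MS.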

[3] = system: PD-1/PD-L1 interaction (Jurkat T cells expressing hPD-1 and PD-L1 aAPC/CHO-K1 cells expressing hPD-L1); experiment: NFAT Assay (PD-1/PD-L1 Blockade Bioassay, luciferase reporter); type: cell-based; settings: Homo sapiens; PD-1 effector Jurkat cells + PD-L1 aAPC/CHO-K1 cells, Bio-Glo luciferase
Description: PD-1/PD-L1 Blockade Bioassay contains two cells: PD-1 Effector Cells, which are the Jurkat T cells expressing hPD-1 and luciferase reporter genes; PD-L1 aAPC/CHO-K1 Cells, which are the CHO-K1 cells expressing hPD-L1 and activate TCR's cell surface proteins. The antibody or small molecule compound is incubated with these two cells for a period of time, and the amount of the product is detected using Bio-Glo Luciferase reagent and chemiluminescence method to reflect the influence of antibody or small molecule compound on PD-1/PD-L1 interaction.
Cell medium: 36 mL Ham's F-12; 4 mL FBS
1) Resuscitate PD-L1 aAPC/CHO-K1 Cells on the first day and the cells were suspended and counted with cell recovery medium. The cells were diluted to 2.65*10^5/ml with cell medium. Seed cells at density of 6000 cells/well of 384-wells plates, incubator for 16-24 h;
2) Dilute the compound to 5 mM with DMSO. The 5 mM solution was used as the first concentration, and a 3-fold gradient dilution was performed, with a total of 9 concentration gradients, and the 10th concentration was used as the DMSO control;
3) Positive control antibody Atezolizumab was diluted to 4 μg/ml with assay buffer. 4 μg/ml was used as the first concentration, and a 2.5-fold gradient dilution was performed, with a total of 9 concentration gradients, and the 10th concentration was used as the assay buffer control;
4) Aspirate the medium from the 384-well plate. Add 10 μL/well of compound to the 384-well plate and incubate for 2 hours;
5) Resuscitate PD-1 effector cells and the cells were suspended and counted with cell recovery medium. The cells were diluted to […] with cell medium. Seed cells at density of 8000 cells/well to 384-wells plates of step 4, incubator for 17 h;
6) Add 20 μL/well of Bio-Glo luciferase reagent to the 384 reaction plate of step 5, and incubate at 25° C. for 5-30 minutes.
7) Read the RLU (relative luminescence unit) value using the Envision multi-plate reader. The experimental data were plotted using compound concentration as X value and RLU as Y value.

Chain of PD-1/PD-L1 (Q9NZQ7 19-238): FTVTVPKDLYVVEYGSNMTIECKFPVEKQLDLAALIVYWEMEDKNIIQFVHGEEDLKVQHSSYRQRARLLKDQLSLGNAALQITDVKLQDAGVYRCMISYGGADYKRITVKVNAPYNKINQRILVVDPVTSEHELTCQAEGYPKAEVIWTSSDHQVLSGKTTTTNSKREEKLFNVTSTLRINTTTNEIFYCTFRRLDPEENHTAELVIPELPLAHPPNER

| IC50 (PD-1/PD-L1) [nM] | AUC [1] [ng·h/mL] | Cmax [1] [ng/mL] | Tmax [1] [h] | half-life [1] [h] | concentration at 0.5 h [2] [ng/mL] | concentration at 2 h [2] [ng/mL] | concentration at 4 h [2] [ng/mL] | SMILES | EC50 [3] [nM] |
| --- | --- | --- | --- | --- | --- | --- | --- | --- | --- |
| 0.4 | 25700 | 2600 | 4 | 5.07 | 43.9 | 55.7 | 61.2 | Cc1c(-c2nc3cc(CN4CCCC4)c(OC(F)F)cc3o2)cccc1-c1cccc(-c2nc3cc(CN4CCC[C@H]4C(=O)O)c(OC(F)F)cc3o2)c1C [Example 5, ((6-(difluoromethoxy)-2-(3′-(6-(difluoromethoxy)-5-(pyrrolidin-1-ylmethyl)benzo[d]oxazol-2-yl)-2,2′-dimethyl-[1,1′-biphenyl]-3-yl)benzo[d]oxazol-5-yl)methyl)-L-proline] | 317 |
|  |  |  |  |  |  |  |  | Cc1c(-c2nc3cc(CN4CCC[C@H]4C(=O)O)ccc3o2)cccc1-c1cccc(-c2nc3cc(CN4CC(C)(C)C4)cc(C#N)c3o2)c1C [Example 318, ((2-(3′-(7-cyano-5-((3,3-dimethylazetidin-1-yl)methyl)benzo[d]oxazol-2-yl)-2,2′-dimethyl-[1,1′-biphenyl]-3-yl)benzo[d]oxazol-5-yl)methyl)-L-proline] | 3220 |
|  |  |  |  |  | 20.6 | 88.5 | 44.3 | Cc1c(-c2nc3cc(CN4CCC[C@H]4C(=O)O)ccc3o2)cccc1-c1cccc(-c2nc3cc(CN4CCCC4)c(OC(F)F)cc3o2)c1C [Example 317, ((2-(3′-(6-(difluoromethoxy)-5-(pyrrolidin-1-ylmethyl)benzo[d]oxazol-2-yl)-2,2′-dimethyl-[1,1′-biphenyl]-3-yl)benzo[d]oxazol-5-yl)methyl)-L-proline] | 4700 |
| 0.13 | 96400 | 5590 | 4 | 23.4 | 48.9 | 185 | 135 | Cc1c(-c2nc3cc(CN4CCC[C@H]4C(=O)O)c(OC(F)F)cc3o2)cccc1-c1cccc(-c2nc3cc(CN4CC(C)(C)C4)cc(C#N)c3o2)c1C [Example 103, ((2-(3′-(7-cyano-5-((3,3-dimethylazetidin-1-yl)methyl)benzo[d]oxazol-2-yl)-2,2′-dimethyl-[1,1′-biphenyl]-3-yl)-6-(difluoromethoxy)benzo[d]oxazol-5-yl)methyl)-L-proline] | 254 |
